Source: article PMC7073023, “Overexpression of ABCB1 Transporter Confers Resistance to mTOR Inhibitor WYE-354 in Cancer Cells” (International Journal of Molecular Sciences, 2020)

Experiments:
ABCB1 [1] = biological target: T1, ABCB1 (Homo sapiens, UniProt P08183); assay: cell-based; parameters: full length ABCB1 (transfected HEK293); ABCB1 membrane vesicles (ATPase kit); conditions: read-out: % of the basal activity
ABCB1 [2] = biological target: T1, ABCB1

T1 sequence (P08183 whole entry): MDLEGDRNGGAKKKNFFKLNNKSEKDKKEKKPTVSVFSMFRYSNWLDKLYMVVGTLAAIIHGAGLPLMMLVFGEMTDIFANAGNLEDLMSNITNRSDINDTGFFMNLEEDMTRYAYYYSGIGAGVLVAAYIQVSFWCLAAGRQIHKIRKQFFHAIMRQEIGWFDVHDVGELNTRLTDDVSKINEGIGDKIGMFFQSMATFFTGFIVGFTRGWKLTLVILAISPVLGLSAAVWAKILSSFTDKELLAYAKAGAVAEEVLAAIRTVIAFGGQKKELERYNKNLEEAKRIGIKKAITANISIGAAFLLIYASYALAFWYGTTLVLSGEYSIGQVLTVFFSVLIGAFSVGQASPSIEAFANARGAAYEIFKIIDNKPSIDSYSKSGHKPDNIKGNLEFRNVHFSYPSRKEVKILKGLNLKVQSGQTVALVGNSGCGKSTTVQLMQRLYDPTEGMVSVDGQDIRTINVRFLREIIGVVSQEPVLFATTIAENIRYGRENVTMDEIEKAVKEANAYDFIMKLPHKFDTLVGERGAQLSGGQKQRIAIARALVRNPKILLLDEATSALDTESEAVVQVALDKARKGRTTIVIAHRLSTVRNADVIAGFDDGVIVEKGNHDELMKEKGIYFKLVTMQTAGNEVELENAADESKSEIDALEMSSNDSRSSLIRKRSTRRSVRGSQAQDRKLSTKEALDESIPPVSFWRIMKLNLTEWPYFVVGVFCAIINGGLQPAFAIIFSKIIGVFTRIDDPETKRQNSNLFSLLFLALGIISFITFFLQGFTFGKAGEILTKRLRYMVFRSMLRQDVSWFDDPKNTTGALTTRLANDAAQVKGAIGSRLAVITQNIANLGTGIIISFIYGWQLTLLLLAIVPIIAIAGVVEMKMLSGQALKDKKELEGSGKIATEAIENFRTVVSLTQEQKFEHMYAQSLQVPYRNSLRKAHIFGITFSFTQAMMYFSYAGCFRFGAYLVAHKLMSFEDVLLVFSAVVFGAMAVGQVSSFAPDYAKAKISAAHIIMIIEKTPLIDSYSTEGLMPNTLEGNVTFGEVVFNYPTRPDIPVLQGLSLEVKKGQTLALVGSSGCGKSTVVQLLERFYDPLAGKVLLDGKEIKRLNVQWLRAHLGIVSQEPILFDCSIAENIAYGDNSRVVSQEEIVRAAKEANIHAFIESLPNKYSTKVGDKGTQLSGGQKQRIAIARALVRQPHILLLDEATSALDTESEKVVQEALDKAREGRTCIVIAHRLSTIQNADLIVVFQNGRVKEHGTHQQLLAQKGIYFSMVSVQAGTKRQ

| SMILES | Emax (ABCB1 [1]) | [3H]-paclitaxel accumulation in ABCB1-overexpressing and ABCB1-transfected cells (ABCB1 [2]) |
| --- | --- | --- |
| COC(=O)Nc1ccc(-c2nc(N3CCOCC3)c3cnn(C4CCN(C(=O)OC)CC4)c3n2)cc1 [WYE-354] | 141% |  |
| CC(=O)O[C@H]1C(=O)[C@@]2(C)[C@H]([C@H](OC(=O)c3ccccc3)[C@]3(O)C[C@H](OC(=O)[C@H](O)[C@@H](NC(=O)c4ccccc4)c4ccccc4)C(C)=C1C3(C)C)[C@]1(OC(C)=O)CO[C@@H]1C[C@@H]2O [paclitaxel] |  | drug–drug interaction between WYE-354 and paclitaxel, which is a known substrate of ABCB1 |
